This is an account of results in ChEMBL document CHEMBL4420076, “Amylin and calcitonin receptor agonist” (2017).

The term EC50 denotes the midpoint of the concentration-response curve. As usually defined, the solubility is how much of the substance goes into solution per volume. As usually defined, the IC50 is the concentration needed to halve the response being measured.

Numbered stars: 1 amine (or outer) side, 2 acyl side, 3 side chain; on linkers, the order of the positions; unused ones are H or OH. Peptide text beside a SMILES is read from it. * marks the point of attachment. C18 diacid = O=C(O)CCCCCCCCCCCCCCCCC(=O)*; γGlu = O=C(O)[C@H](CCC(=O)[*:2])N[*:1]; C14 diacid = O=C(O)CCCCCCCCCCCCC(=O)*; AEEA = NCCOCCOCC(=O)O

For data set [1], the system named is Rattus norvegicus. Description: Reduction in food intake in Sprague-Dawley rat at 3 nmol/kg measured 0 to 24 hrs post dose relative to control. Type of data set: functional. On the set-up: scale not given: the % may be the effect or the level left.
Data set [2] deals with Rattus norvegicus. Description: Reduction in food intake in Sprague-Dawley rat at 3 nmol/kg measured 24 to 48 hrs post dose relative to control. On the set-up: scale not given: the % may be the effect or the level left. Type of data set: functional.
Data set [3] has as its target T1, Amylin receptor AMY3; CALCR/RAMP3 (Homo sapiens, UniProt O60896+P30988).
T1 sequence (P30988 whole entry): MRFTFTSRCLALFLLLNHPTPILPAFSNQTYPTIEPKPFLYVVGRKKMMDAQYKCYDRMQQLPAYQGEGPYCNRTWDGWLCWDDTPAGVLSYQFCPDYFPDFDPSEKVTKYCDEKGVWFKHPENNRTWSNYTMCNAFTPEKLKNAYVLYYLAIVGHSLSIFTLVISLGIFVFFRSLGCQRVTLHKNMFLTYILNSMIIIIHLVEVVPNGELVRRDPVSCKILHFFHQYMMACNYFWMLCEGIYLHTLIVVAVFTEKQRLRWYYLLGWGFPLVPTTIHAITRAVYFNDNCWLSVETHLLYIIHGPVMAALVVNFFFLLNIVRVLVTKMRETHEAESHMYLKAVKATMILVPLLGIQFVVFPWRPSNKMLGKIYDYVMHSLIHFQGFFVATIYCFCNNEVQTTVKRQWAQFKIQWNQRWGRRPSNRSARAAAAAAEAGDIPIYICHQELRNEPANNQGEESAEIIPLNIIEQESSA
T1 sequence (O60896 whole entry): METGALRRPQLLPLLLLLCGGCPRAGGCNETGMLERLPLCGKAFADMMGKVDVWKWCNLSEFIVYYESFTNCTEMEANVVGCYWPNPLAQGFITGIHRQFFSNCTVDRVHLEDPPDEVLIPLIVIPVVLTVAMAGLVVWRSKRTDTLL
Description: Agonist activity at human amylin receptor expressed in BHK570 cells co-expressing RAMP3 assessed as increase in intracellular cAMP concentration incubated for 3 hrs in absence of albumin by CRE luciferase reporter gene assay. It counts as functional, cell-based.

Data set [4] addresses T2, Calcitonin receptor (Homo sapiens, UniProt P30988).
T2 sequence (P30988 whole entry): T1 sequence (P30988 whole entry)
The data set can be described thus: Agonist activity at human calcitonin receptor expressed in BHK570 cells assessed as increase in intracellular cAMP concentration incubated for 3 hrs in absence of albumin by CRE luciferase reporter gene assay. Type of data set: functional, cell-based.

Data set [5] can be described thus: Solubility in 100 mM glycylglycine buffer at pH 3.0 incubated for 18 hrs by UPLC analysis. It counts as physicochemical.
Data set [6] can be described thus: Solubility in 100 mM glycylglycine buffer at pH 4.0 incubated for 18 hrs by UPLC analysis. It counts as physicochemical.
Data set [7] in a line: Solubility in 100 mM bistrispropane buffer at pH 6.0 incubated for 18 hrs by UPLC analysis. It counts as physicochemical.
Data set [8] in a line: Solubility in 100 mM glycylglycine buffer at pH 5.0 incubated for 18 hrs by UPLC analysis. It counts as physicochemical.
Data set [9] is described as follows: Solubility in 100 mM bistrispropane buffer at pH 6.5 incubated for 18 hrs by UPLC analysis. Type of data set: physicochemical.
Data set [10] in a line: Solubility in 100 mM bistrispropane buffer at pH 7.0 incubated for 18 hrs by UPLC analysis. It counts as physicochemical.
Data set [11] can be described thus: Solubility in 100 mM bistrispropane buffer at pH 7.5 incubated for 18 hrs by UPLC analysis. Type of data set: physicochemical.
Data set [12] in a line: Solubility in 100 mM bistrispropane buffer at pH 8.0 incubated for 18 hrs by UPLC analysis. It counts as physicochemical.
In data set [13] the target is T1, Amylin receptor AMY3; CALCR/RAMP3. Description: Displacement of [125I]-labeled rat amylin from human amylin receptor expressed in BHK tkts13 whole cells co-expressing RAMP3 incubated for 60 mins by scintillation proximity assay. Type of data set: cell-based. A general note: In a radioligand displacement assay an active substance lowers the binding of a labelled ligand.

For `CC(C)C[C@H](NC(=O)[C@H](CCC(=O)O)NC(=O)[C@H](Cc1cnc[nH]1)NC(=O)[C@H](CC(C)C)NC(=O)[C@H](CCC(=O)O)NC(=O)[C@H](C)NC(=O)[C@H](CO)NC(=O)[C@H](CC(C)C)NC(=O)[C@H](CCCNC(=N)N)NC(=O)CNC(=O)[C@H](CC(C)C)NC(=O)[C@@H](NC(=O)[C@H](C)NC(=O)[C@@H](NC(=O)[C@H](CO)NC(=O)[C@H](CC(C)C)NC(=O)[C@H](CCC(=O)O)NC(=O)[C@H](CO)NC(=O)[C@H](C)NC(=O)[C@H](CCC(=O)O)NC(=O)CCCCCCCCCCCCCCCCC(=O)O)[C@@H](C)O)C(C)C)C(=O)N[C@@H](C)C(=O)N[C@H](C(=O)N[C@@H](CC(C)C)C(=O)N1CCC[C@H]1C(=O)N1CCC[C@H]1C(=O)N[C@H](C(=O)N[C@@H](CCC(=O)O)C(=O)N[C@H](C(=O)NCC(=O)N1CCC[C@H]1C(=O)N[C@@H](CCC(=O)O)C(=O)N[C@@H](CO)C(=O)N1CCC[C@H]1C(N)=O)[C@@H](C)O)[C@@H](C)O)[C@@H](C)O` ({C18 diacid}-EASELSTAVLGRLSAELHELATLPPTETGPESP-NH2), the results for the Activity in data set [1] and in data set [2] were 62% and 12%, respectively. Further, the EC50 in data set [3] was 14 pM; in [4] it was 6 pM. Also, the solubility at 18 h in [5], in [6], in data set [7], in data set [8], in [9] and in data set [10] was no less than 200 µM each time. The solubility at 18 h in data set [11] and in [12] was no less than 200 µM throughout. Moreover, the IC50 in [13] is 383 pM.
For the compound `CC(C)C[C@H](NC(=O)[C@H](C)NC(=O)[C@H](C)NC(=O)[C@@H](NC(=O)[C@H](CO)NC(=O)[C@H](CC(C)C)NC(=O)[C@H](CCC(=O)O)NC(=O)[C@H](CO)NC(=O)[C@H](C)NC(=O)[C@H](CCC(=O)O)NC(=O)COCCOCCNC(=O)COCCOCCNC(=O)COCCOCCNC(=O)COCCOCCNC(=O)CC[C@H](NC(=O)CC[C@H](NC(=O)CCCCCCCCCCCCC(=O)O)C(=O)O)C(=O)O)[C@@H](C)O)C(=O)NCC(=O)N[C@@H](CCCNC(=N)N)C(=O)N[C@@H](CC(C)C)C(=O)N[C@@H](CO)C(=O)N[C@@H](C)C(=O)N[C@@H](CCC(=O)O)C(=O)N[C@@H](CC(C)C)C(=O)N[C@@H](Cc1cnc[nH]1)C(=O)N[C@@H](CCC(=O)O)C(=O)N[C@@H](CC(C)C)C(=O)N[C@@H](C)C(=O)N[C@H](C(=O)N[C@@H](CC(C)C)C(=O)N1CCC[C@H]1C(=O)N[C@@H](CCCNC(=N)N)C(=O)N[C@H](C(=O)N[C@@H](CCC(=O)O)C(=O)N[C@H](C(=O)NCC(=O)N1CCC[C@H]1C(=O)N[C@@H](CCC(=O)O)C(=O)N[C@@H](CO)C(=O)N1CCC[C@H]1C(N)=O)[C@@H](C)O)[C@@H](C)O)[C@@H](C)O` ({C14 diacid-γGlu-γGlu-AEEA-AEEA-AEEA-AEEA}-EASELSTAALGRLSAELHELATLPRTETGPESP-NH2), the Activity is 3% in data set [1] and -3% in data set [2]. In addition, the values for the EC50 in data set [3] and in [4] were 27 pM and 7 pM, respectively. For the same compound, the solubility at 18 h in [5], in [6], in data set [7], in data set [8], in data set [9] and in [10] was no less than 200 µM throughout. The solubility at 18 h in data set [11] and in data set [12] was no less than 200 µM each time. For the same compound, the IC50 in data set [13] was 8380 pM.
Take `CC(C)C[C@H](NC(=O)[C@H](C)NC(=O)[C@H](C)NC(=O)[C@@H](NC(=O)[C@H](CO)NC(=O)[C@H](CC(C)C)NC(=O)[C@H](CCC(=O)O)NC(=O)[C@H](CO)NC(=O)[C@H](C)NC(=O)[C@H](CCC(=O)O)NC(=O)CCCCCCCCCCCCC(=O)O)[C@@H](C)O)C(=O)NCC(=O)N[C@@H](CCCNC(=N)N)C(=O)N[C@@H](CC(C)C)C(=O)N[C@@H](CO)C(=O)N[C@@H](C)C(=O)N[C@@H](CCC(=O)O)C(=O)N[C@@H](CC(C)C)C(=O)N[C@@H](Cc1cnc[nH]1)C(=O)N[C@@H](CCC(=O)O)C(=O)N[C@@H](CC(C)C)C(=O)N[C@@H](C)C(=O)N[C@H](C(=O)N[C@@H](CC(C)C)C(=O)N1CCC[C@H]1C(=O)N[C@@H](CCCNC(=N)N)C(=O)N[C@H](C(=O)N[C@@H](CCC(=O)O)C(=O)N[C@H](C(=O)NCC(=O)N1CCC[C@H]1C(=O)N[C@@H](CCC(=O)O)C(=O)N[C@@H](CO)C(=O)N1CCC[C@H]1C(N)=O)[C@@H](C)O)[C@@H](C)O)[C@@H](C)O` ({C14 diacid}-EASELSTAALGRLSAELHELATLPRTETGPESP-NH2): the Activity in [1] is 13.5%; in data set [2], -4%. Besides, the EC50 in data set [3] was 6 pM; in [4], 2 pM. The solubility at 18 h in data set [5], in [6], in data set [7], in [8], in data set [9] and in data set [10] was no less than 200 µM in each case. Moreover, the solubility at 18 h in data set [11] and in [12] was no less than 200 µM each time. In addition, the IC50 in data set [13] is 1190 pM.
For the compound `CC(C)C[C@H](NC(=O)[C@H](CCC(=O)O)NC(=O)[C@H](Cc1cnc[nH]1)NC(=O)[C@H](CC(C)C)NC(=O)[C@H](CCC(=O)O)NC(=O)[C@H](C)NC(=O)[C@H](CO)NC(=O)[C@H](CC(C)C)NC(=O)[C@H](CCCNC(=N)N)NC(=O)CNC(=O)[C@H](CC(C)C)NC(=O)[C@@H](NC(=O)[C@H](C)NC(=O)[C@@H](NC(=O)[C@H](CO)NC(=O)[C@H](CC(C)C)NC(=O)[C@H](CCC(=O)O)NC(=O)[C@H](CO)NC(=O)[C@@H]1CCCN1C(=O)[C@H](CCC(=O)O)NC(=O)CCCCCCCCCCCCCCCCC(=O)O)[C@@H](C)O)C(C)C)C(=O)N[C@@H](C)C(=O)N[C@H](C(=O)N[C@@H](CC(C)C)C(=O)N1CCC[C@H]1C(=O)N[C@@H](CCCNC(=N)N)C(=O)N[C@H](C(=O)N[C@@H](CCC(=O)O)C(=O)N[C@H](C(=O)NCC(=O)N1CCC[C@H]1C(=O)N[C@@H](CCC(=O)O)C(=O)N[C@@H](CO)C(=O)N1CCC[C@H]1C(N)=O)[C@@H](C)O)[C@@H](C)O)[C@@H](C)O` ({C18 diacid}-EPSELSTAVLGRLSAELHELATLPRTETGPESP-NH2), the figures for the Activity in [1] and in [2] were 84% and 77%, respectively. Also, the EC50 in data set [3] is 8 pM; in data set [4], 7 pM. Besides, the solubility at 18 h in data set [5], in [6], in [7], in data set [8], in [9] and in [10] was no less than 200 µM in each case. Moreover, the solubility at 18 h in data set [11] and in data set [12] was no less than 200 µM throughout. Further, the IC50 in data set [13] was 375 pM.
For the compound `CC(C)C[C@H](NC(=O)[C@H](C)NC(=O)[C@H](C)NC(=O)[C@@H](NC(=O)[C@H](CO)NC(=O)[C@H](CC(C)C)NC(=O)[C@H](CCC(=O)O)NC(=O)[C@H](CO)NC(=O)[C@H](C)NC(=O)[C@H](CCC(=O)O)NC(=O)CCCCCCCCCCCCCCCCC(=O)O)[C@@H](C)O)C(=O)NCC(=O)N[C@@H](CCCNC(=N)N)C(=O)N[C@@H](CC(C)C)C(=O)N[C@@H](CO)C(=O)N[C@@H](C)C(=O)N[C@@H](CCC(=O)O)C(=O)N[C@@H](CC(C)C)C(=O)N[C@@H](C)C(=O)N[C@@H](CCC(=O)O)C(=O)N[C@@H](CC(C)C)C(=O)N[C@@H](C)C(=O)N[C@H](C(=O)N[C@@H](CC(C)C)C(=O)N1CCC[C@H]1C(=O)N[C@@H](CCCNC(=N)N)C(=O)N[C@H](C(=O)N[C@@H](CCC(=O)O)C(=O)N[C@H](C(=O)NCC(=O)N1CCC[C@H]1C(=O)N[C@@H](CCC(=O)O)C(=O)N[C@@H](CO)C(=O)N1CCC[C@H]1C(N)=O)[C@@H](C)O)[C@@H](C)O)[C@@H](C)O` ({C18 diacid}-EASELSTAALGRLSAELAELATLPRTETGPESP-NH2), the results for the Activity in [1] and in data set [2] were 70% and 18%, respectively. The EC50 in data set [3] is 4 pM; in data set [4] it was 3 pM. Moreover, the solubility at 18 h in data set [5], in [6], in [7], in data set [8], in data set [9] and in data set [10] was no less than 200 µM each time. The solubility at 18 h in data set [11] and in data set [12] was no less than 200 µM in each case. Besides, the IC50 in data set [13] was 329 pM.
